According to the supplement of paper PMC11061612:

Tests used:
U-87-MG (Glioblastoma) [1] = experiment: Bliss excess, mean over the matrix (fraction); higher = more synergy
Outline: (§1)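 Bliss excess equals the observed combination effect minus the expected value EA + EB − EA·EB, where EA and EB are the effects of each agent alone. Combination Emax is the second-highest inhibition within the matrix. Inhibition was scaled from CellTiter-Glo 2.0 luminescence, with 0 set by vehicle wells and 1 by blank wells, after 72 hours of two-drug dosing of cells plated in 1536-well plates.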

[2] = test system: OCUB-M (Breast Carcinoma); experiment: as above
Outline: as §1

[3] = test system: HuP-T3 (Pancreatic Carcinoma); experiment: as above
Outline: as §1

[4] = test system: NCI-N87 (Gastric Carcinoma); experiment: as above
Outline: as §1

[5] = test system: VMRC-LCD (Lung Adenocarcinoma); experiment: as above
Outline: as §1

EW-3 (Ewing's Sarcoma) = experiment: as above
Outline: as §1

[6] = test system: NCI-H1573 (Lung Adenocarcinoma); experiment: as above
Outline: as §1

[7] = test system: KINGS-1 (Low Grade Glioma); experiment: combination Emax (second highest fraction inhibited in the dose matrix, 72 h); higher = more inhibition; extreme values may be limits of the assay
Outline: as §1

IMR-5 (Neuroblastoma) = experiment: as above
Outline: as §1

U-87-MG (Glioblastoma) [8] = experiment: as above
Outline: as §1

[9] = test system: PFSK-1 (Other Solid Carcinomas); experiment: as above
Outline: as §1

EW-13 (Ewing's Sarcoma) = experiment: as above
Outline: as §1

[10] = test system: OCUB-M (Breast Carcinoma); experiment: as above
Outline: as §1

GI-1 (Glioblastoma) = experiment: as above
Outline: as §1

[11] = test system: EMC-BAC-2 (Non-Small Cell Lung Carcinoma); experiment: as above
Outline: as §1

[12] = test system: EBC-1 (Squamous Cell Lung Carcinoma); experiment: as above
Outline: as §1

[13] = test system: NCI-H513 (Other Solid Carcinomas); experiment: as above
Outline: as §1

[14] = test system: KLE (Endometrial Carcinoma); experiment: as above
Outline: as §1

[15] = test system: KYSE-150 (Esophageal Squamous Cell Carcinoma); experiment: as above
Outline: as §1

[16] = test system: KYSE-50 (Esophageal Squamous Cell Carcinoma); experiment: as above
Outline: as §1

| Compound | Bliss excess (U-87-MG (Glioblastoma) [1]) | Bliss excess [2] | Bliss excess [3] | Bliss excess [4] | Bliss excess [5] | Bliss excess (EW-3 (Ewing's Sarcoma)) | Bliss excess [6] | combination Emax [7] | combination Emax (IMR-5 (Neuroblastoma)) | combination Emax (U-87-MG (Glioblastoma) [8]) | combination Emax [9] | combination Emax (EW-13 (Ewing's Sarcoma)) | combination Emax [10] | combination Emax (GI-1 (Glioblastoma)) | combination Emax [11] | combination Emax [12] | combination Emax [13] | combination Emax [14] | combination Emax [15] | combination Emax [16] |
| --- | --- | --- | --- | --- | --- | --- | --- | --- | --- | --- | --- | --- | --- | --- | --- | --- | --- | --- | --- | --- |
| NC1(C(=O)N[C@@H](CCO)c2ccc(Cl)cc2)CCN(c2ncnc3[nH]ccc23)CC1 [Capivasertib] + COc1nnc2ccc(N3CCC(c4ccc(OCCN5CCN(C)C(=O)[C@H]5C)cc4)CC3)nn12 [AZD5153] (first compound max 10 µM, 7x7, partner max 1 µM) | 0.0526 | 0.0223 | -0.0395 | -0.0314 | 0.0154 | 0.0429 | -0.0011 | 0.349 | 0.857 | 0.671 | 0.581 | 0.636 | 0.998 | 0.915 | 0.769 | 0.829 | 0.416 | 0.639 | 0.796 | 0.525 |
| NC1(C(=O)N[C@@H](CCO)c2ccc(Cl)cc2)CCN(c2ncnc3[nH]ccc23)CC1 [Capivasertib] + C[C@@H]1COCCN1C2=NC(=NC(=C2)C3(CC3)[S@](=N)(=O)C)C4=C5C=CNC5=NC=C4 [AZD6738] (first compound max 10 µM, 7x7, partner max 10 µM) | 0.0169 | -0.0241 | -0.036 | -0.0567 | -0.0185 | -0.0457 | -0.0522 | 0.425 | 0.99 | 0.714 | 0.699 | 0.67 | 1 | 0.944 | 0.728 | 0.601 | 0.386 | 0.59 | 0.681 | 0.676 |
| NC1(C(=O)N[C@@H](CCO)c2ccc(Cl)cc2)CCN(c2ncnc3[nH]ccc23)CC1 [Capivasertib] + Cn1cnc2c(F)c(Nc3ccc(Br)cc3Cl)c(C(=O)NOCCO)cc21 [Selumetinib] (first compound max 10 µM, 7x7, partner max 10 µM) | -0.0316 | 0.0081 | -0.0559 | 0.01 | 0.0047 | -0.0091 | 0.0019 | 0.597 | 0.168 | 0.685 | 0.516 | 0.249 | 0.998 | 0.622 | 0.622 | 0.963 | 0.409 | 0.484 | 0.743 | 0.298 |
| Cc1nc(Nc2ncc(C(=O)Nc3c(C)cccc3Cl)s2)cc(N2CCN(CCO)CC2)n1 [Dasatinib] + CC(=O)Nc1cccc(-n2c(=O)n(C3CC3)c(=O)c3c(Nc4ccc(I)cc4F)n(C)c(=O)c(C)c32)c1 [Trametinib] (first compound max 2 µM, 7x7, partner max 1 µM) | -0.0575 | -0.0384 | 0.0459 | -0.0339 | -0.0596 | -0.0576 | 0.0311 | 0.465 | 0.19 | 0.384 | 0.338 | 0 | 0.0542 | 0.368 | 0.779 | 0.997 | 0.531 | 0.724 | 0.743 | 0.858 |
| COc1cc2ncnc(Nc3ccc(F)c(Cl)c3)c2cc1OCCCN1CCOCC1 [Gefitinib] + CC(C)n1c(=O)n(C)c2cnc3cc(F)c(-c4ccc(OCCCN5CCCCC5)nc4)cc3c21 [AZD1390] (first compound max 10 µM, 7x7, partner max 0.3 µM) | -0.0771 | -0.0537 | -0.0595 | -0.064 | -0.0405 | -0.0347 | -0.104 | 0.113 | 0.123 | 0.0691 | 0.265 | 0.117 | 0.154 | 0.18 | 0.32 | 0.0862 | 0.268 | 0.442 | 0.353 | 0.334 |
| CS(=O)(=O)CCNCc1ccc(-c2ccc3ncnc(Nc4ccc(OCc5cccc(F)c5)c(Cl)c4)c3c2)o1 [Lapatinib] + C[C@@H](Oc1cc(-c2cnn(C3CCNCC3)c2)cnc1N)c1c(Cl)ccc(F)c1Cl [Crizotinib] (first compound max 10 µM, 7x7, partner max 10 µM) | -0.0302 | -0.0465 | -0.0563 | -0.0456 | -0.0246 | -0.0505 | 0.121 | 0.921 | 0.976 | 0.613 | 0.956 | 0.285 | 0.697 | 0.909 | 0.909 | 1 | 0.557 | 0.51 | 0.984 | 0.93 |
| CC(=O)c1c(C)c2cnc(Nc3ccc(N4CCNCC4)cn3)nc2n(C2CCCC2)c1=O [Palbociclib] + CC1(C)CCC(CN2CCN(c3ccc(C(=O)NS(=O)(=O)c4ccc(NCC5CCOCC5)c([N+](=O)[O-])c4)c(Oc4cnc5[nH]ccc5c4)c3)CC2)=C(c2ccc(Cl)cc2)C1 [Venetoclax] (first compound max 10 µM, 7x7, partner max 1 µM) | -0.054 | -0.0276 | -0.021 | -0.0275 | -0.0377 | 0.0792 | 0.0244 | 0.206 | 0.7 | 0.29 | 0.235 | 0.0985 | 0.0811 | 0.03 | 0.243 | 0.223 | 0.0783 | 0.203 | 0.455 | 0.233 |
| CC(=O)c1c(C)c2cnc(Nc3ccc(N4CCNCC4)cn3)nc2n(C2CCCC2)c1=O [Palbociclib] + Cc1c2c(nn1C)CSCc1cc(n(C)n1)CSc1cc(c3ccccc3c1)OCCCc1c(C(=O)O)n(C)c3c-2c(Cl)ccc13 [AZD5991] (first compound max 10 µM, 7x7, partner max 1 µM) | -0.0527 | -0.0004 | -0.072 | -0.0373 | -0.0288 | -0.0003 | -0.0539 | 0.258 | 0.902 | 0.29 | 0.969 | 0.488 | 0.882 | 0.455 | 0.643 | 0.36 | 0.171 | 0.181 | 0.585 | 0.353 |
| CC(=O)c1c(C)c2cnc(Nc3ccc(N4CCNCC4)cn3)nc2n(C2CCCC2)c1=O [Palbociclib] + Cn1cnc2c(F)c(Nc3ccc(Br)cc3Cl)c(C(=O)NOCCO)cc21 [Selumetinib] (first compound max 10 µM, 7x7, partner max 10 µM) | -0.0929 | -0.0413 | -0.014 | 0.0117 | -0.0448 | 0.0301 | 0.0017 | 0.232 | 0.612 | 0.326 | 0.138 | 0.113 | 0.0542 | 0.0397 | 0.362 | 0.944 | 0.305 | 0.31 | 0.684 | 0.357 |
| COc1cccc(OCCCN)c1-c1cc(Nc2cnc(C#N)cn2)n[nH]1 [Prexasertib] + CCc1c2c(nc3ccc(O)cc13)-c1cc3c(c(=O)n1C2)COC(=O)[C@]3(O)CC [SN-38] (first compound max 1 µM, 7x7, partner max 0.3 µM) | -0.092 | 0.258 | 0.0335 | -0.0787 | 0.023 | -0.0732 | 0.0357 | 0.691 | 1 | 0.74 | 0.815 | 0.84 | 0.989 | 1 | 0.657 | 0.953 | 0.695 | 0.593 | 0.966 | 0.904 |
| C[C@@H](c1ccc2nccn2c1)n1nnc2ncc(-c3cnn(C)c3)nc21 [Savolitinib] + CC1(C)CCC(CN2CCN(c3ccc(C(=O)NS(=O)(=O)c4ccc(NCC5CCOCC5)c([N+](=O)[O-])c4)c(Oc4cnc5[nH]ccc5c4)c3)CC2)=C(c2ccc(Cl)cc2)C1 [Venetoclax] (first compound max 1 µM, 7x7, partner max 1 µM) | -0.0699 | -0.0371 | -0.0912 | -0.0341 | -0.0153 | 0.0364 | -0.0802 | 0.334 | 0.173 | 0.252 | 0.302 | 0.128 | 0.116 | 0.317 | 0.0698 | 0.968 | 0.0676 | 0.0864 | 0.189 | 0.196 |
| C[C@@H](c1ccc2nccn2c1)n1nnc2ncc(-c3cnn(C)c3)nc21 [Savolitinib] + Cc1c2c(nn1C)CSCc1cc(n(C)n1)CSc1cc(c3ccccc3c1)OCCCc1c(C(=O)O)n(C)c3c-2c(Cl)ccc13 [AZD5991] (first compound max 1 µM, 7x7, partner max 1 µM) | -0.0347 | -0.0393 | -0.0526 | -0.0513 | -0.0198 | -0.0011 | -0.036 | 0.323 | 0.645 | 0.288 | 0.93 | 0.313 | 0.899 | 0.587 | 0.45 | 1 | 0.0607 | 0.162 | 0.219 | 0.298 |
| Cn1cnc2c(F)c(Nc3ccc(Br)cc3Cl)c(C(=O)NOCCO)cc21 [Selumetinib] + C=CCn1c(=O)c2cnc(Nc3ccc(N4CCN(C)CC4)cc3)nc2n1-c1cccc(C(C)(C)O)n1 [AZD1775] (first compound max 10 µM, partner max 1 µM) | -0.0685 | -0.0399 | 0.0194 | 0.023 | -0.0272 | -0.0564 | -0.0331 | 0.361 | 0.894 | 0.252 | 0.659 | 0.0949 | 0.0588 | 0.74 | 0.412 | 0.923 | 0.406 | 0.539 | 0.453 | 0.605 |
